Reference: patent US9957230B2, “Synergistic compositions” (Cadila Healthcare Limited, priority 2013, dated 2018)

System: Swiss albino mice
Test: Triglyceride lowering effects of various salts in Swiss albino mice
Format: in vivo
Details: dose equivalent to 1 mg/kg free acid; for Serum triglycerides (mg/dl) Day 0: Day 0 (pretreatment); for Serum triglycerides (mg/dl) Day 0 / Serum triglycerides (mg/dl) Day 6: male Swiss albino mice; for Serum triglycerides (mg/dl) Day 6: Day 6, one hr after dose; for % Change Vs control: serum triglycerides vs vehicle control after 6 days; for % Change Day 6 vs Day 0: serum triglycerides
Procedure: Comparative Efficacy Study of (Triglyceride Lowering Effects) of Various Salts of Compound (Ia) in Swiss Albino Mice.
The in-vivo efficacy of compound (I) was evaluated in Swiss albino mice. Anti-dyslipidemic drugs have been reported to lower circulating levels of triglyceride in Swiss albino mice through their effect on genes involved in the peroxisomal fatty acid beta oxidation via PPAR alpha agonism. Therefore, this species is preferred for evaluation of their efficacy in lowering circulating triglyceride (TG) levels.
In this experiment, six to eight week old male Swiss albino mice were issued and kept for acclimatization. Near the end of the acclimatization period, animals judged to be suitable for testing were bled under light ether anesthesia and serum samples were analyzed for Serum triglyceride levels.
Test compound was formulated at specified doses in vehicle (10% Polyethylene glycol (PEG) 400+90% of 0.5% Sodium Carboxy methyl cellulose). The animals were dosed orally, once daily in the morning during six days, starting from next day of grouping with vehicle or test compound. The animals were weighed prior to dosing, and based on these weights; the volume of administration was calculated. The volume of formulation administered to each mouse was 10 ml/kg body weight.
On day 6 one hr after the dose administration, blood (0.25 ml) was collected from retro-orbital sinus of the anaesthetized animals. Serum was separated by centrifugation. Serum was analyzed for triglyceride levels. Analysis for serum triglyceride levels was performed using a Spectrophotometer and commercially available kit. Calculations for determination of % change and % reduction in serum TG levels were performed using MS Excels sheet.

[1] = Table 5, oral once daily 6 days
[2] = Table 3, oral once daily 6 days

Compound	Serum triglycerides (mg/dl) Day 0 (Table 7, po once daily 6 days) [mg/dL]	Serum triglycerides (mg/dl) Day 6 (Table 7, po once daily 6 days) [mg/dL]	% Change Vs control (Table 7, po) [%]	% Change Day 6 vs Day 0 (Table 7, po once daily 6 days) [%]	Serum triglycerides (mg/dl) Day 0 [1] [mg/dL]	Serum triglycerides (mg/dl) Day 6 [1] [mg/dL]	% Change Vs control (Table 5, oral) [%]	% Change Day 6 vs Day 0 [1] [%]	Serum triglycerides (mg/dl) Day 0 [2] [mg/dL]	Serum triglycerides (mg/dl) Day 6 [2] [mg/dL]	% Change Vs control (Table 3, oral) [%]	% Change Day 6 vs Day 0 [2] [%]
CCO[C@@H](Cc1ccc(OCCn2c(C)ccc2-c2ccc(SC)cc2)cc1)C(=O)O.c1c[nH]cn1 [Imidazole salt of Formula (I), (S) 2-Ethoxy-3-(4-{2-[2-methyl-5-(4-methylthiophenyl)-pyrrol-1-yl]-ethoxy}-phenyl)-propionic acid imidazole salt]	110.5 ± 7.2	43.5 ± 2.5	−55.3 ± 3.6	−59.8 ± 3.2	–	–	–	–	–	–	–	–
CCO[C@@H](Cc1ccc(OCCn2c(C)ccc2-c2ccc(SC)cc2)cc1)C(=O)O.c1ccc(CCNCc2ccccc2)cc1 [Benethamine salt of Formula (I), (S) 2-Ethoxy-3-(4-{2-[2-methyl-5-(4-methylthiophenyl)-pyrrol-1-yl]-ethoxy}-phenyl)-propionic acid Benethamine salt]	–	–	–	–	91.6 ± 6.4	56.0 ± 4.9	−41.6 ± 5.4	−38.3 ± 5.7	–	–	–	–
(S) 2-Ethoxy-3-(4-{2-[2-methyl-5-(4-methylthiophenyl)-pyrrol-1-yl]-ethoxy}-phenyl)-propionic acid piperazine salt [Piperazine salt of Formula (I)]	–	–	–	–	91.0 ± 6.5	44.1 ± 1.9	−52.8 ± 3.7	−50.2 ± 4.0	–	–	–	–
CCO[C@@H](Cc1ccc(OCCn2c(C)ccc2-c2ccc(SC)cc2)cc1)C(=O)[O-].[K+] [Potassium Salt of formula (I), (S) 2-Ethoxy-3-(4-{2-[2-methyl-5-(4-methylthiophenyl)-pyrrol-1-yl]-ethoxy}-phenyl)-propionic acid potassium salt]	–	–	–	–	–	–	–	–	119.0 ± 9.2	44.8 ± 4.6	−60.2 ± 6.0	−60.7 ± 6.0
(S) 2-Ethoxy-3-(4-{2-[2-methyl-5-(4-methylthiophenyl)-pyrrol-1-yl]-ethoxy}-phenyl)-propionic acid Dibenzylamine salt [Dibenzylamine salt of Formula (I)]	–	–	–	–	91.0 ± 6.7	42.1 ± 2.9	−54.4 ± 5.8	−51.8 ± 6.1	–	–	–	–
(S) 2-Ethoxy-3-(4-{2-[2-methyl-5-(4-methylthiophenyl)-pyrrol-1-yl]-ethoxy}-phenyl)-propionic acid L-arginine salt [L-arginine salt of Formula (I)]	–	–	–	–	91.6 ± 7.9	37.2 ± 2.1	−60.2 ± 3.9	−58.0 ± 4.2	–	–	–	–
(S) 2-Ethoxy-3-(4-{2-[2-methyl-5-(4-methylthiophenyl)-pyrrol-1-yl]-ethoxy}-phenyl)-propionic acid benzylamine salt [Benzylamine salt of Formula (I)]	–	–	–	–	91.1 ± 10.8	36.5 ± 4.0	−60.2 ± 5.8	−57.9 ± 6.2	–	–	–	–
CCO[C@@H](Cc1ccc(OCCn2c(C)ccc2-c2ccc(SC)cc2)cc1)C(=O)O.OCCN1CCCC1 [Epolamine salt of Formula (I)]	110.5 ± 7.5	39.6 ± 3.8	−60.1 ± 2.6	−64.2 ± 2.3	–	–	–	–	–	–	–	–
CCO[C@@H](Cc1ccc(OCCn2c(C)ccc2-c2ccc(SC)cc2)cc1)C(=O)O.OCCN(CCO)CCO [Triethanolamine salt of Formula (I)]	110.3 ± 7.5	33.0 ± 2.6	−65.3 ± 4.4	−68.9 ± 3.9	–	–	–	–	–	–	–	–
(S) 2-Ethoxy-3-(4-{2-[2-methyl-5-(4-methylthiophenyl)-pyrrol-1-yl]-ethoxy}-phenyl)-propionic acid Calcium Salt [Calcium Salt of Formula (I)]	–	–	–	–	–	–	–	–	119.2 ± 11.1	38.8 ± 3.2	−66.4 ± 2.5	−66.8 ± 2.5
CCO[C@@H](Cc1ccc(OCCn2c(C)ccc2-c2ccc(SC)cc2)cc1)C(=O)[O-].[Na+] [Sodium Salt of Formula (I), (S) 2-Ethoxy-3-(4-{2-[2-methyl-5-(4-methylthiophenyl)-pyrrol-1-yl]-ethoxy}-phenyl)-propionic acid sodium salt]	–	–	–	–	–	–	–	–	119.4 ± 11.9	41.6 ± 1.8	−63.1 ± 3.6	−63.5 ± 3.6
(S) 2-Ethoxy-3-(4-{2-[2-methyl-5-(4-methylthiophenyl)-pyrrol-1-yl]-ethoxy}-phenyl)-propionic acid Tromethamine salt [Tromethamine salt of Formula (I)]	–	–	–	–	91.2 ± 7.8	47.9 ± 4.9	−46.9 ± 8.5	−43.9 ± 9.0	–	–	–	–
(S) 2-Ethoxy-3-(4-{2-[2-methyl-5-(4-methylthiophenyl)-pyrrol-1-yl]-ethoxy}-phenyl)-propionic acid L-Lysine salt [L-lysine salt of Formula (I)]	–	–	–	–	91.2 ± 6.8	48.7 ± 3.3	−48.7 ± 3.6	−45.8 ± 3.8	–	–	–	–
Benzenepropanoic acid, α-ethoxy-4-[2-[2-methyl-5-[4-(methylthio) phenyl]-1H -pyrrol-1-yl] ethoxy]-, magnesium salt [Compound (Ia)]	111.1 ± 8.4	36.9 ± 2.9	−61.5 ± 4.6	−65.5 ± 4.2	91.4 ± 8.8	37.4 ± 3.2	−60.5 ± 3.5	−58.3 ± 3.7	117.7 ± 13.8	38.2 ± 4.1	−66.1 ± 4.2	−66.5 ± 4.1
